# Laboratory results published in US10604490B2, “Processes for preparing ASK1 inhibitors” (Gilead Sciences, Inc., priority 2014, dated 2020).
# Read-outs that look alike come from different tables or passages of the source.
# Tests used:
# [1] = DVS analysis (moisture uptake); format: physicochemical; details: at 90% RH
# Procedure: Compound of Formula (D) Form I was obtained after the isothermal hold of Compound of Formula (D) hydrate Form I at about 150° C. Compound of Formula (D) Form I was also obtained after KF analysis of Compound of Formula (D) Form II and Compound of Formula (D) Form I at about 180° C. Slurries of Compound of Formula (D) hydrate Form I in water miscible organic solvents also afforded Compound of Formula (D) Form I (MeCN, MeOH, EtOH, IPA, acetone, and THF). […] (FIG. 10). DSC thermogram afforded single endotherm with onset at about 252° C. (FIG. 11). […] No form change was observed after DVS.
# [2] = Hydrate screen: solubility in EtOH/water mixtures with different water activities; format: physicochemical; details: thermodynamic from solid, slurry at room temperature
# Procedure: A hydrate screen of Compound of Formula (D) was performed using a mixture of anhydrous forms of Compound of Formula (D) Form II and of Compound of Formula (D) Form I and EtOH/water solvent mixtures with different water activities (Table 1). Compound of Formula (D) Form II and Compound of Formula (D) Form I (about 20 to about 40 mg) was slurried in about 1 mL of EtOH/water or water. Samples were analyzed after about 1 day and after about 2 weeks of equilibration at room temperature. Pure anhydrous Compound of Formula (D) Form I was obtained after 1 day in mixtures with about 0.2 to about 0.4 water activity. However, after 2 weeks of equilibration a new form was obtained in EtOH/water with 0.4 water activity. This form was designated as Compound of Formula (D) Form III. Compound of Formula (D) hydrate Form I was obtained in solvents with about 0.5 to about 1.0 water activity after 1 day and after about 2 weeks.
# [3] = slurry at room temperature
# Procedure: (§1) A stable form screen of Compound of Formula (D) hydrate Form I was performed in an attempt to determine the stability of Compound of Formula (D) hydrate Form I in different organic solvents. […] Compound of Formula (D) hydrate Form I (about 50 to about 60 mg) was slurried in about 1 mL of chosen solvent. Solids were analyzed by XRPD after about 1 day and about 2 weeks of equilibration at room temperature.
# as §1, with “in” for “in about”, “after” for “after about”, “and” for “and about”
compound,measurement,setting,value
Cc1cc(F)c(C(=O)O)cc1-n1cnc(C2CC2)c1 [Compound of Formula (D) Form I],moisture uptake (DVS; slightly hygroscopic),[1],about 0.5%
Cc1cc(F)c(C(=O)O)cc1-n1cnc(C2CC2)c1 [5-(4-cyclopropyl-1H-imidazol-1-1-2-fluoro-4-methylbenzoic acid],Solubility,"[2]; EtOH/water solvent mixture, aqueous with cosolvent or surfactant or cyclodextrin, EtOH/water, water activity 0.9 (water 0.825 mL, EtOH 0.175 mL)",3930 µg/mL
same,Solubility,"[2]; EtOH/water solvent mixture, organic solvent or mixture, EtOH/water, water activity 0.2 (water 0.031 mL, EtOH 0.969 mL)",7270 µg/mL
same,Solubility,"[2]; EtOH/water solvent mixture, organic solvent or mixture, EtOH/water, water activity 0.3 (water 0.066 mL, EtOH 0.934 mL)",8060 µg/mL
same,Solubility,"[2]; EtOH/water solvent mixture, organic solvent or mixture, EtOH/water, water activity 0.4 (water 0.077 mL, EtOH 0.923 mL)",7860 µg/mL
same,Solubility,"[2]; EtOH/water solvent mixture, organic solvent or mixture, EtOH/water, water activity 0.5 (water 0.097 mL, EtOH 0.903 mL)",8160 µg/mL
same,Solubility,"[2]; EtOH/water solvent mixture, organic solvent or mixture, EtOH/water, water activity 0.6 (water 0.149 mL, EtOH 0.851 mL)",6590 µg/mL
same,Solubility,"[2]; EtOH/water solvent mixture, organic solvent or mixture, EtOH/water, water activity 0.7 (water 0.263 mL, EtOH 0.737 mL)",6880 µg/mL
same,Solubility,"[2]; EtOH/water solvent mixture, organic solvent or mixture, EtOH/water, water activity 0.8 (water 0.481 mL, EtOH 0.519 mL)",6560 µg/mL
same,Solubility,"[2]; water, water activity 1.0 (water 1.0 mL, EtOH 0)",3320 µg/mL
Cc1cc(F)c(C(=O)O)cc1-n1cnc(C2CC2)c1.O [Compound of Formula (D) Hydrate Form I],Solubility,[3]; solvent 2-MeTHF,4480 µg/mL
same,Solubility,[3]; solvent Acetone,1990 µg/mL
same,Solubility,[3]; solvent DCM,190 µg/mL
same,Solubility,[3]; solvent EtOAc,730 µg/mL
same,Solubility,[3]; solvent EtOH,6180 µg/mL
same,Solubility,[3]; solvent IPA,2900 µg/mL
same,Solubility,[3]; solvent IPAc,450 µg/mL
same,Solubility,[3]; solvent MeCN,400 µg/mL
same,Solubility,[3]; solvent MeOH,20670 µg/mL
same,Solubility,[3]; solvent THF,11790 µg/mL
